Measurements as given in patent publication US7052714B1, “Ophthalmic adhesive preparations for percutaneous adsorption” (Senju Pharmaceutical Co., LTD, priority 1999, dated 2006).
Where “and” joins values, the source holds several entries; their conditions need not be identical. Equal entries are not always repeated. Where two headings read alike, the source gives them in different places. Each block holds one compound with its values, some of them ahead of it.

Legend:
[1] = male, Wistar/ST, rat, in vivo
Procedure: (§1) 0.5-ml blood sampling was performed over time through a sampling port of the cannula placed on the occipital region of the rat's head. For measurement of transfer of the drug to the ocular tissues, rats were euthanized with an excess amount of sodium pentobarbital solution and the ocular tissues were removed. The tissues were pretreated, extracted and measured to determine the concentration of the drug by HPLC.
(§2) Determination of the concentration of N-(4-fluorophenylsulfonyl)-L-valyl-L-leucinal in the samples was carried out by HPLC under the following conditions.

in vivo = details: male, Wistar/ST, rat
Procedure: as §1, §2

[2] = In vivo test-2: SJA6017 transdermal patch, transfer to the plasma and ocular tissues; set-up: species or system Wistar/ST rats; details: transdermal application, 12 hours after application
Source text: A study of SJA6017-containing transdermal patch according to the formula below was made for examining transfer of SJA6017 from the patch to the plasma and to the ocular tissues, and comparison of the results with those from intravenous injection was also made.
The hair was removed under anesthesia with a clipper and a shaver carefully to avoid injuring the skin. A SJA6017 transdermal patch having a drug-containing layer according to the above formula with the size of 5.0×6.0 cm (30 cm^2) was applied to the animals (n=10) of the percutaneous administration group on the abdominal skin and secured in position with a supporting tape to prevent it from falling. After 12 hours of application, the animals were sacrificed and the blood was collected from the abdominal aorta, and the plasma separated. The eyes were excised at the same time. Each of the eyes was separated into the aqueous humor, the lens and the other tissues (consisting of the cornea, the sclera, the iris-ciliary body, the vitreous body and the retina-choroid), and corresponding tissues separated from the 20 eyes were combined, respectively, to make a sample.

[3] = In vivo test-2: intravenous administration experiment; set-up: species or system Wistar rats; details: intravenous injection 2 mg/kg, rat, 15 minutes after injection
Procedure: An intravenous administration experiment was carried out using 5 male Wistar rats (body weight approx. 600 g: 592±34 g) by administering 2 mg/kg SJA6017 through the tail vein of the animals under pentobarbital anesthesia. For the administration, a solution was used containing 10 mg SJA6017 dissolved in 10 ml mixture of ethanol/PEG400/water (1/2/1). Fifteen minutes after the intravenous administration, the animals were sacrificed, the blood was collected through the abdominal aorta, and the plasma separated. The eyes were excised at the same time. Each of the eyes was separated into the aqueous humor, the lens and the other tissues (consisting of the cornea, the sclera, the iris-ciliary body, the vitreous body and the retina-choroid), and corresponding tissues separated from the 10 eyes were combined, respectively, to make a sample.

[4] = In vivo test-1: transfer of drugs from transdermal patches to the plasma and ocular tissues
Procedure: as §1, §2

[5] = male, Wistar/ST, rat, plasma, other: transdermal patch applied on the abdominal skin, 10 cm^2
[6] = male, Wistar/ST, rat, plasma, other: transdermal patch applied on the abdominal skin, 10 cm^2 patch

- time after application at which plasma concentration reached the peak [1]: 8 h
- concentration at 0 h (in vivo): 0 ng/mL
- concentration at 2 h (in vivo): 220 ng/mL
- concentration at 4 h (in vivo): 288 ng/mL
- concentration at 6 h (in vivo): 70 ng/g and 385 ng/mL
- concentration at 8 h (in vivo): 608 ng/mL
- concentration at 12 h (in vivo): 148 ng/mL
- concentration at 18 h (in vivo): 99 ng/mL
- concentration at 24 h (in vivo): 77 ng/mL
Structure (SMILES): C[C@]12C=CC(=O)C=C1CC[C@@H]1[C@@H]2[C@@H](O)C[C@@]2(C)[C@H]1CC[C@]2(O)C(=O)CO [Prednisolone, prednisolone]

- concentration at 12 h ([2]; male, Wistar/ST, eye (ocular tissues), other: transdermal patch applied on the abdominal skin, 30 cm^2 patch, 5 W/W% SJA6017 patch 30 cm^2, rat, read-out: Intraocular concentration): 7.2 ng/g
- concentration at 12 h ([2]; male, Wistar/ST, lens, other: transdermal patch applied on the abdominal skin, 30 cm^2 patch, SJA6017 patch 30 cm^2, rat, read-out: Intraocular concentration, itemized: Lens): 1.1 ng/g
- concentration at 12 h ([2]; male, Wistar/ST, other: transdermal patch applied on the abdominal skin, 30 cm^2 patch, SJA6017 patch 30 cm^2, rat, read-out: Intraocular concentration, itemized: Other ocular tissues (cornea, sclera, iris-ciliary body, vitreous body, retina-choroid)): 13.8 ng/g
- concentration at 12 h ([2]; male, Wistar/ST, plasma, other: transdermal patch applied on the abdominal skin, 30 cm^2 patch, 5 W/W% SJA6017 patch 30 cm^2, rat, read-out: Plasma concentration): 47 ± 12 ng/mL
- Kp at 12 h ([2]; male, Wistar/ST, rat, eyeball/plasma, other: transdermal patch applied on the abdominal skin, 30 cm^2 patch, SJA6017 patch 30 cm^2, rat, read-out: Eyeball/plasma ratio): ~0.16
- Intraocular concentration, itemized: Aqueous humor ([2]; SJA6017 patch 30 cm^2, rat): not detected
- Lens: ratio to plasma concentration (100%) ([2]; SJA6017 patch 30 cm^2, rat): (2.3%)*^2
- Other ocular tissues: ratio to plasma concentration (100%) ([2]; SJA6017 patch 30 cm^2, rat): (29.6%)*^2
- Intraocular concentration, itemized: Aqueous humor [3]: not detected
- Intraocular concentration, itemized: Lens [3]: not detected
- Other ocular tissues: ratio to plasma concentration (100%) [3]: (27.8%)*^2
- Eyeball/plasma ratio ([3]; 2 mg/kg): 13%
- concentration at 15 min ([3]; male, Wistar, eye (ocular tissues), read-out: Intraocular concentration): 16 ng/g
- Kp at 15 min ([3]; male, Wistar, eyeball/plasma, read-out: Eyeball/plasma ratio): 0.13
- concentration at 15 min ([3]; male, Wistar, plasma, read-out: Plasma concentration): 120 ± 16 ng/mL
- concentration at 15 min ([3]; male, Wistar, read-out: Intraocular concentration, itemized: Other ocular tissues (cornea, sclera, iris-ciliary body, vitreous body, retina-choroid)): 33.4 ng/g
- time after application at which plasma concentration reached the peak ([4]; SJA6017 patch No. S4, 10 cm^2, rat): 12 h
- plasma concentration 24 hours after application relative to its peak ([4]; SJA6017 patch No. S4, 10 cm^2, rat, 24 hours): about 85%
- concentration at 8 h [4, 5]: 50 ng/mL
- concentration at 12 h [4, 5]: 114 ng/mL
- concentration at 18 h [4, 5]: 68 ng/mL
- concentration at 24 h [4, 5]: 98 ng/mL
- concentration at 0 h [4, 6]: 0 ng/mL
- concentration at 2 h [4, 6]: 30 ng/mL
- concentration at 4 h [4, 6]: 36 ng/mL
- concentration at 6 h [4, 6]: 58 ng/mL
Structure (SMILES): CC(C)C[C@@H](C=O)NC(=O)[C@@H](NS(=O)(=O)c1ccc(F)cc1)C(C)C [SJA6017, N-(4-fluorophenylsulfonyl)-L-valyl-L-leucinal]
